From patent US8892197B2, “Method and apparatus to control conduction through the heart to treat cardiac conditions” (Medtronic, Inc., priority 2005, dated 2014)

Key:
AVN conduction = experiment: AV block duration after ACH bolus, direct AVN injection vs. intravenous, anesthetized canines; assay type: in vivo
Description: (§1) This study evaluated the effect of locally administered acetylcholine (ACH) on AVN conduction and refractoriness properties during sinus rhythm and AF. Canines (n=7) were anesthetized, and instrumented to assess atrial and ventricular electrophysiology as well as arterial blood pressure. A custom drug delivery catheter was fixed into the AVN region using a combination of standard electrophysiological mapping techniques and image guided therapy via a cardiac navigation system.

[1] = test system: AVN conduction and refractoriness; experiment: Incremental ACH infusion into the AVN: ventricular rate during electrically induced AF, AVN refractoriness, intervals, blood pressure; assay type: in vivo, Canines; conditions: for Ventricular rate during electrically induced AF: infusion into AVN, decreased from 182±32
Description: as §1
Subsequently, incremental doses of ACH starting at 10 ug/min were infused into the AVN until complete atrioventricular heart block (AVB) was observed.

[2] = Intravenous Bolus (n = 5), identical dose

CC(=O)OCC[N+](C)(C)C [ACH, acetylcholine]
AV Block III duration (AVN conduction; Direct AVN Bolus (n = 6)): 12.30 ± 4.72 min
Overall AV Block duration (AV block I, II and III) (AVN conduction; Direct AVN Bolus (n = 6)): 41.19 ± 27.14 min
AV Block III duration (AVN conduction; [2]): 0.00 ± 0.00 min
Overall AV Block duration (AV block I, II and III) (AVN conduction; [2]): 0.31 ± 0.43 min
PP intervals, HV intervals and blood pressure ([1]; ACH dose producing first AVB): remained unchanged
Time to full reversal of observed effects after stopping ACH infusion ([1]; after stopping infusion into AVN): ≤ 20 min
Ventricular rate during electrically induced AF ([1]; dosage inducing first degree AVB, p<0.05): 77±28 bpm
Ventricular rate during electrically induced AF ([1]; dosage inducing third degree AVB, p<0.05): 28±8 bpm
AVN effective refractory period (ERP) ([1]; first degree AVB dose, pacing cycle length 400 msec, increased from 186±37, p=0.06): 282 ± 33 ms
Wenckebach cycle length ([1]; first degree AVB dose, increased from 271±29, p<0.05): 378 ± 58 ms
